Read-outs that look alike come from different tables or passages of the source.
What was measured:
[1] = target: Fms kinase (Homo sapiens (Human), UniProt P07333); assay: Fms kinase biochemical activity assay (AlphaScreen, biotin-(E4Y)10 phosphorylation)
Outline: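 Recombinant human Fms phosphorylating 30 nM biotin-(E4Y)10 with 100 μM ATP (1 ng/well enzyme) in Hepes pH 7.5 buffer with Mg2+/Mn2+, 5% DMSO, 20 min at 30 °C. Phosphotyrosine detected by AlphaScreen streptavidin donor/PY20 acceptor beads; IC50 from signal versus compound concentration.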

[2] = target: BCR-FMS/BaF3 cells (Homo sapiens, UniProt P07333); assay: BCR-FMS/BaF3 cell proliferation assay (ATPlite); format: cell-based
Description: Compounds are assessed in a variety of cell based assays. For example BCR-FMS/BaF3, BCR-KIT/BaF3, M-NFS-60, M-07e, and BAC1.2F5 cell proliferation assays are used to assess inhibitory activity of Fms or Kit and MV-4-11 cell proliferation assay is used to assess inhibitory activity in Flt-3. […] On day 1, cells are counted, then centrifuged in a conical tube for 5 minutes at 1000 rpm. The supernatant is removed and cells are re-suspended as follows: • BCR-FMS/BaF3 and BCR-KIT/BaF3: resuspend in growth media+1 mg/mL G418 (without WEHI/IL-3) to 2×10^5 cells/mL. • M-NFS-60: resuspend in growth media +62 ng/mL murine M-CSF to 5×10^5 cells/mL. • M-07e: resuspend in growth media +200 ng/mL human SCF to 5×10^5 cells/mL. • BAC1.2F5: resuspend in growth media +36 ng/mL murine M-CSF to 1.4×10^5 cells/mL. • MV-4-11: resuspend in growth media +10% FBS to 5×10^5 cells/mL. […] On day 2, compound at a maximum concentration of 5 mM is serially diluted 1:3 for a total of 8 point titration with DMSO as a control. A 1 μL aliquot of each dilution point is added to 249 μL growth media and 50 μL is added to a well containing cells, providing 10 μM compound for the maximum concentration point. The cells are incubated for 3 days at 37° C. in 5% CO2. […] ATPlite is added to each well as follows: • BCR-FMS/BaF3 and BCR-KIT/BaF3: 25 μL per well. • M-NFS-60: 25 μL per well. • M-07c: 40 μL per well. • BAC1.2F5: 50 μL per well. • MV-4-11: 40 μL per well. The cells are incubated at room temperature for 10 minutes, then luminescence is read on Safire reader. The measured luminescence correlates directly with cell number, such that the reading as a function of compound concentration is used to determine the IC50 value.

[3] = target: c-Kit kinase (Homo sapiens (Human), UniProt P10721); assay: c-Kit kinase biochemical activity assay (AlphaScreen, biotin-(E4Y)10 phosphorylation)
Description: In one assay the biochemical activity IC50 values are determined with respect to inhibition of c-Kit kinase activity, where inhibition of phosphorylation of a peptide substrate is measured as a function of compound concentration. Compounds to be tested are dissolved in DMSO to a concentration of 20 mM. These are diluted 30 μL into 120 μL of DMSO (4 mM) and 1 μL is added to an assay plate. These are then serially diluted […] (50 μL to 100 μL DMSO) for a total of 8 points. Plates are prepared such that each kinase reaction is 20 μL in 1× kinase buffer (25 mM HEPES, pH 7.5, 2 mM MgCl2, 2 mM MnCl2, 0.01% Tween-20, 1 mM DTT, 0.01% BSA), 5% DMSO and 100 μM ATP. Substrate is 30 nM biotin-(E4Y)10 (Millipore). C-kit kinase (obtained from Millipore (#14-559) or is prepared as described in U.S. Patent Application Publication Number 2009/0076046, the disclosure of which is hereby incorporated by reference as it relates to this assay) is at 0.75 ng per sample. After incubation of the kinase reaction for 1 hour at room temperature, 5 μL of donor beads (Streptavidin coated beads (Perkin Elmer Life Science) final concentration 10 μg/mL) in stop buffer (25 mM Hepes pH 7.5, 100 mM EDTA, 0.01% BSA) is added, the sample is mixed and incubated for 20 minutes at room temperature before adding 5 μL of acceptor beads (PY20 coated beads (Perkin Elmer Life Science) final concentration 10 μg/mL) in stop buffer. The samples are incubated for 60 minutes at room temperature and the signal per well is read on Envision reader. […] The signal vs. compound concentration is used to determine the IC50.

[4] = read-out: Biochemical activity (IC50 μM) Fms
[5] = BCR-FMS/BaF3 cells; read-out: BCR/BaF3 (IC50 μM) Fms
[6] = Kit IC50/Fms IC50, BCR-KIT/BaF3 vs BCR-FMS/BaF3 cells
[7] = read-out: BCR/BaF3 (IC50 μM) Fms; BCR-FMS/BaF3 cells
[8] = 100 μM ATP, read-out: Biochemical (IC50 μM) Fms
[9] = BCR-FMS/BaF3 cells, 3 days; read-out: Cell based (IC50 μM) BCR/BaF3 (Fms)
[10] = read-out: Cell based (IC50 μM) BCR/BaF3 (Fms); BCR-FMS/BaF3 cells, 3 days

BCR-FMS/BaF3 cells, sequence (P07333 20-972 limits assumed, change not shown): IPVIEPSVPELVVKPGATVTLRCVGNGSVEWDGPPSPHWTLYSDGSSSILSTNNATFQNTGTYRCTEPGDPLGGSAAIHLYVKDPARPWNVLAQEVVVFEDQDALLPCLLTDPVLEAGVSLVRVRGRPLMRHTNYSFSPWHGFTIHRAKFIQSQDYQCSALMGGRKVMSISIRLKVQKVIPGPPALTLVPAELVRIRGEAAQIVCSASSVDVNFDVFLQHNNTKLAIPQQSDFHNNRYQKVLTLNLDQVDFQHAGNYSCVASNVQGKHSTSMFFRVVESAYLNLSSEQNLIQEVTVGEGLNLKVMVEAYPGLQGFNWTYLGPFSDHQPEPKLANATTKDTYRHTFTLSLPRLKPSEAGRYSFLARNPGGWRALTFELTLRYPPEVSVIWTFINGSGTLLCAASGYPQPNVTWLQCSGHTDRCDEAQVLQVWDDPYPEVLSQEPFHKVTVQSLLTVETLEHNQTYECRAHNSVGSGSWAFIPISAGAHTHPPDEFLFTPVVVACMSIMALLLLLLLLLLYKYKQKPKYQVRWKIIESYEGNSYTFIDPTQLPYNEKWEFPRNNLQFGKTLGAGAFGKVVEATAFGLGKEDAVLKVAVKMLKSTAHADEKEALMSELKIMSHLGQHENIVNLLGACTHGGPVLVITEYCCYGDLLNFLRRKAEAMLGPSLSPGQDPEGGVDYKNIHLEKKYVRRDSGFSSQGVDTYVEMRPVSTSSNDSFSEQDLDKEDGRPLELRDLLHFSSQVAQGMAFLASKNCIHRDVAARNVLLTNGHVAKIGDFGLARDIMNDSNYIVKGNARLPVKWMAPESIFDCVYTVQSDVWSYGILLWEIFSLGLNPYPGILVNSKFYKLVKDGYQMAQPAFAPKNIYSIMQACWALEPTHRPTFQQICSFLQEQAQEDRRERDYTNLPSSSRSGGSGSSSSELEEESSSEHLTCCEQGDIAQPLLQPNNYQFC
Fms kinase, sequence (P07333 20-972): as the sequence (P07333 20-972 limits assumed, change not shown) above
c-Kit kinase, sequence (P10721 26-976): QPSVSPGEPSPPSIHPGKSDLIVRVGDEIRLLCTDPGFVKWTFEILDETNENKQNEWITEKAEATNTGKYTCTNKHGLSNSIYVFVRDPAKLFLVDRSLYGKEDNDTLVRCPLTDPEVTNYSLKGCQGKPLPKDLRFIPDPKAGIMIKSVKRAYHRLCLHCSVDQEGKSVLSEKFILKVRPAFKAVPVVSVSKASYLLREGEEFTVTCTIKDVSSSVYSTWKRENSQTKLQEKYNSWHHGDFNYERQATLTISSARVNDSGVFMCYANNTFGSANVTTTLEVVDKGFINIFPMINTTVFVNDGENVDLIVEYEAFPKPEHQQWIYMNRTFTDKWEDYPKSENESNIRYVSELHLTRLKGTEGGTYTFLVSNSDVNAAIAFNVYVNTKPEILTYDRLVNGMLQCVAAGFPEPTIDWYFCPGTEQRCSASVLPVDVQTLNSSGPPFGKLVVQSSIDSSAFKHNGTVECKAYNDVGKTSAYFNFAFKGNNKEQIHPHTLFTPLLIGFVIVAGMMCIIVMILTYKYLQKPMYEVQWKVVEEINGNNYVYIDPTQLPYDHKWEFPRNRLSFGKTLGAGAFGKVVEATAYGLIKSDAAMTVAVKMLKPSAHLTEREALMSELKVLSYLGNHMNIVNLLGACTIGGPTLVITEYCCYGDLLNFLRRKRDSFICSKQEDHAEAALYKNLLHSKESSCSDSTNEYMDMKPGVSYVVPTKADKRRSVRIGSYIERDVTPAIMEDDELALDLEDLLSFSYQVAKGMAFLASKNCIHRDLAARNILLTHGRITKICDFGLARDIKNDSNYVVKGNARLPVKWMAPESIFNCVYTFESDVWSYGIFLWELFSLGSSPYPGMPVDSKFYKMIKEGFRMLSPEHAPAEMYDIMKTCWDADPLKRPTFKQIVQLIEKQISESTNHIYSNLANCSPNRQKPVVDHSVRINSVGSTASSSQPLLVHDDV

Structure (SMILES)	Biochemical activity selectivity (Kit IC50/Fms IC50) [1]	IC50 [1, 4]	IC50 [2, 5]	BCR/BaF3 selectivity (Kit IC50/Fms IC50) [2, 6]	IC50 [3]	IC50 [2, 7]	IC50 [1, 8]	IC50 [2, 9]	IC50 [2, 10]
COc1ccc(CNc2ncc(Cc3c[nH]c4ncc(C)cc34)cc2C)cn1 [Compound P-1554, (6-Methoxy-pyridin-3-ylmethyl)-[3-methyl-5-(5-methyl-1H-pyrrolo[2,3-b]pyridin-3-ylmethyl)-pyridin-2-yl]-amine]	<20	< 0.1 µM	< 0.1 µM	<20	< 0.1 µM	–	–	–	–
COc1ccc(CNc2ncc(Cc3c[nH]c4ncc(C)cc34)cc2F)cn1 [Compound P-1562, [3-Fluoro-5-(5-methyl-1H-pyrrolo[2,3-b]pyridin-3-ylmethyl)-pyridin-2-yl]-(6-methoxy-pyridin-3-ylmethyl)-amine]	<20	< 0.1 µM	–	<20	< 0.1 µM	< 0.1 µM	–	–	–
COc1ccc(CNc2ccc(Cc3c[nH]c4ncc(F)cc34)c(F)n2)cn1 [Compound P-1622, [6-Fluoro-5-(5-fluoro-1H-pyrrolo[2,3-b]pyridin-3-ylmethyl)-pyridin-2-yl]-(6-methoxy-pyridin-3-ylmethyl)-amine]	>20	< 0.1 µM	–	>20	> 0.1 µM	< 0.1 µM	–	–	–
COc1ncc(F)cc1CNc1ccc(Cc2c[nH]c3ncc(NC(C)=O)cc23)c(F)n1 [Compound P-1669, N-(3-{2-fluoro-6-[(5-fluoro-2-methoxy-pyridin-3-ylmethyl)-amino]-pyridin-3-ylmethyl}-1H-pyrrolo[2,3-b]pyridin-5-yl)-acetamide]	–	–	–	>20	–	< 0.1 µM	–	–	–
CS(=O)(=O)Nc1cnc2[nH]cc(Cc3ccc(NCc4ccc(Cl)nc4)nc3F)c2c1 [Compound P-1679, N-(3-{6-[(6-Chloro-pyridin-3-ylmethyl)-amino]-2-fluoro-pyridin-3-ylmethyl}-1H-pyrrolo[2,3-b]pyridin-5-yl)-methanesulfonamide]	>20	< 0.1 µM	–	>20	> 0.1 µM	< 0.1 µM	–	–	–
Fc1cncc(CNc2ccc(Cc3c[nH]c4ncc(Cl)cc34)c(F)n2)c1 [Compound P-2001, [5-(5-Chloro-1H-pyrrolo[2,3-b]pyridin-3-ylmethyl)-6-fluoro-pyridin-2-yl]-(5-fluoro-pyridin-3-ylmethyl)-amine]	>20	< 0.1 µM	–	>20	> 0.1 µM	< 0.1 µM	–	–	–
Clc1cnc2[nH]cc(Cc3ccc(NCc4ccc(Cl)nc4)nc3)c2c1 [Compound P-2003]	<20	< 0.1 µM	< 0.1 µM	<20	< 0.1 µM	–	< 0.1 µM	< 0.1 µM	–
Fc1ccc(CNc2ccc(Cc3c[nH]c4ncc(Cl)cc34)cn2)cn1 [Compound P-2004, [5-(5-chloro-1H-pyrrolo[2,3-b]pyridin-3-ylmethyl)-pyridin-2-yl]-(6-fluoro-pyridin-3-ylmethyl)-amine]	<20	< 0.1 µM	–	<20	< 0.1 µM	< 0.1 µM	< 0.1 µM	–	< 0.1 µM
Fc1ccc(CNc2ncc(Cc3c[nH]c4ncc(Cl)cc34)cn2)cc1F [Compound P-2008, [5-(5-Chloro-1H-pyrrolo[2,3-b]pyridin-3-ylmethyl)-pyrimidin-2-yl]-(3,4-difluoro-benzyl)-amine]	<20	< 0.1 µM	< 0.1 µM	<20	< 0.1 µM	–	–	–	–
Cc1cccc(CNc2ncc(Cc3c[nH]c4ncc(Cl)cc34)cn2)c1 [Compound P-2013, [5-(5-Chloro-1H-pyrrolo[2,3-b]pyridin-3-ylmethyl)-pyrimidin-2-yl]-(3-methyl-benzyl)-amine]	<20	< 0.1 µM	< 0.1 µM	<20	< 0.1 µM	–	–	–	–
Cc1cnc2[nH]cc(Cc3ccc(NCc4ccc(C(F)(F)F)nc4)nc3)c2c1 [Compound P-2019, [5-(5-Methyl-1H-pyrrolo[2,3-b]pyridin-3-ylmethyl)-pyridin-2-yl]-(6-trifluoromethyl-pyridin-3-ylmethyl)-amine]	<20	< 0.1 µM	–	<20	< 0.1 µM	< 0.1 µM	< 0.1 µM	–	< 0.1 µM
COc1cnc2[nH]cc(Cc3ccc(NCc4cncc(F)c4)nc3F)c2c1 [Compound P-2028, [6-Fluoro-5-(5-methoxy-1H-pyrrolo[2,3-b]pyridin-3-ylmethyl)-pyridin-2-yl]-(5-fluoro-pyridin-3-ylmethyl)-amine]	>20	< 0.1 µM	–	>20	> 0.1 µM	< 0.1 µM	–	–	–
COc1ccc(CNc2ccc(Cc3c[nH]c4ncc(C)cc34)c(F)n2)cn1 [Compound P-2029, [6-Fluoro-5-(5-methyl-1H-pyrrolo[2,3-b]pyridin-3-ylmethyl)-pyridin-2-yl]-(6-methoxy-pyridin-3-ylmethyl)-amine]	>20	< 0.1 µM	–	>20	> 0.1 µM	< 0.1 µM	< 0.1 µM	–	< 0.1 µM
COc1cnc2[nH]cc(Cc3ccc(NCc4ccccc4Cl)nc3F)c2c1 [Compound P-2034, (2-chloro-benzyl)-[6-fluoro-5-(5-methoxy-1H-pyrrolo[2,3-b]pyridin-3-ylmethyl)-pyridin-2-yl]-amine]	–	–	–	–	–	–	< 0.1 µM	< 0.1 µM	–
COc1cnc2[nH]cc(Cc3ccc(NCc4cccnc4OC)nc3F)c2c1 [Compound P-2043, [6-Fluoro-5-(5-methoxy-1H-pyrrolo[2,3-b]pyridin-3-ylmethyl)-pyridin-2-yl]-(2-methoxy-pyridin-3-ylmethyl)-amine]	>20	–	–	>20	–	< 0.1 µM	–	–	–
Fc1nc(NCc2ccc(Cl)cn2)ccc1Cc1c[nH]c2ncccc12 [Compound P-2044, (5-Chloro-pyridin-2-ylmethyl)-[6-fluoro-5-(1H-pyrrolo[2,3-b]pyridin-3-ylmethyl)-pyridin-2-yl]-amine]	–	–	–	–	–	–	< 0.1 µM	–	< 0.1 µM
Cc1cc(CNc2ccc(Cc3c[nH]c4ncc(Cl)cc34)c(F)n2)ccn1 [Compound P-2075, [5-(5-Chloro-1H-pyrrolo[2,3-b]pyridin-3-ylmethyl)-6-fluoro-pyridin-2-yl]-(2-methyl-pyridin-4-ylmethyl)-amine]	>20	< 0.1 µM	–	–	> 0.1 µM	–	–	–	–

Source: patent US9096593B2, “Compounds and methods for kinase modulation, and indications therefor” (Plexxikon Inc., priority 2009, dated 2015)
